The text below walks through data of ChEMBL document CHEMBL5321204, “Hybrids of delavirdine and piperdin-4-yl-aminopyrimidines (DPAPYs) as potent HIV-1 NNRTIs: Design, synthesis and biological activities” (Eur J Med Chem, 2023).

Bounds are passed on as bounds.

Data set [1] deals with Human immunodeficiency virus 1. In words: Antiviral activity against HIV-1 RES056 mutant infected in human MT4 cells assessed as protection against virus induced cytopathic effect and measured after 5 days by MTT spectrophotometric assay. It counts as functional, organism-based. Particulars: Human immunodeficiency virus 1, MT4, 120 h. For orientation: Damage to the host cells serves as the signal in cytopathic effect assays.

For data set [2], the system named is Human immunodeficiency virus 1. In words: Antiviral activity against HIV-1 L100I mutant infected in human MT4 cells assessed as protection against virus induced cytopathic effect and measured after 5 days by MTT spectrophotometric assay. It counts as functional, organism-based. Conditions: Human immunodeficiency virus 1, MT4, 120 h.
The test system of data set [3] is Human immunodeficiency virus 2. In words: Antiviral activity against HIV-2 ROD infected in human MT4 cells assessed as protection against virus induced cytopathic effect and measured after 5 days by MTT spectrophotometric assay. Particulars: Human immunodeficiency virus 2, ROD, MT4, 120 h. In kind it is functional, organism-based.
In data set [4] the test system is Human immunodeficiency virus 1. In words: microbe, parasite or virus in culture. Particulars: Human immunodeficiency virus 1, IIIb, MT4, 120 h.
Description: Antiviral activity against HIV-1 IIIb infected in human MT4 cells assessed as protection against virus induced cytopathic effect and measured after 5 days by MTT spectrophotometric assay
Data set [5] concerns Human immunodeficiency virus 1. The data set can be described thus: Antiviral activity against HIV-1 K103 N mutant infected in human MT4 cells assessed as protection against virus induced cytopathic effect and measured after 5 days by MTT spectrophotometric assay. It counts as functional, organism-based. Conditions: Human immunodeficiency virus 1, MT4, 120 h.
For data set [6], the system named is Human immunodeficiency virus 1. In words: Antiviral activity against HIV-1 E138K mutant infected in human MT4 cells assessed as protection against virus induced cytopathic effect and measured after 5 days by MTT spectrophotometric assay. It counts as functional, organism-based. Conditions: Human immunodeficiency virus 1, MT4, 120 h.
Data set [7] has as its target Human immunodeficiency virus type 1 reverse transcriptase (Human immunodeficiency virus 1, UniProt Q72547). The data set can be described thus: Inhibition of HIV-1 reverse transcriptase using [2,8-3H]dGTP as substrate by […] assay.
A short description of data set [8]: Cytotoxicity against human MT4 cells assessed as reduction in cell viability incubated for 5 days by MTT spectrophotometric assay. It counts as toxicity, cell-based. Particulars: time 5 day.
Data set [9] deals with Human immunodeficiency virus 1. In words: Antiviral activity against HIV-1 Y181C mutant infected in human MT4 cells assessed as protection against virus induced cytopathic effect and measured after 5 days by MTT spectrophotometric assay. It counts as functional, organism-based. Conditions: Human immunodeficiency virus 1, MT4, 120 h.
The nature of another data set: in vitro. Particulars: human, MT4 cells.
The subject of data set [10] is Human immunodeficiency virus 1. In words: Antiviral activity against HIV-1 F227L-V106A mutant infected in human MT4 cells assessed as protection against virus induced cytopathic effect and measured after 5 days by MTT spectrophotometric assay. In kind it is functional, organism-based. Particulars: Human immunodeficiency virus 1, MT4, 120 h.
The subject of data set [11] is Human immunodeficiency virus 1. In words: Antiviral activity against HIV-1 Y188L mutant infected in human MT4 cells assessed as protection against virus induced cytopathic effect and measured after 5 days by MTT spectrophotometric assay. Particulars: Human immunodeficiency virus 1, MT4, 120 h. It counts as functional, organism-based.

Description for in vitro: Selectivity index, ratio of CC50 for cytotoxicity against human MT4 cells assessed as reduction in cell viability to EC50 for antiviral activity against HIV-1 IIIb infected in human MT4 cells assessed as reduction in virus induced cytopathic effect

Take `CS(=O)(=O)Nc1ccc2[nH]c(C(=O)N3CCC(Nc4nccc(Oc5cccc(C(F)(F)F)c5)n4)CC3)cc2c1`: the EC50 is more than 16 µM in [1]; more than 16 µM in data set [2]; more than 16 µM in data set [3]; 1000 nM in data set [4]; more than 16 µM in [5]; 4.2 µM in data set [6]. The EC50 in data set [9], in [10] and in [11] was more than 16 µM each time. The same compound displayed an IC50 in data set [7] of 1800 nM. Further, the CC50 at 120 h in data set [8] stood at 16 µM. Moreover, the selectivity ratio in “in vitro” was 16.
With `CS(=O)(=O)Nc1ccc2[nH]c(C(=O)N3CCC(Nc4nccc(Oc5ccc(C(F)(F)F)cc5)n4)CC3)cc2c1`, the EC50 in data set [1] was more than 18 µM; in data set [2], more than 18 µM; in data set [3], more than 18 µM; in data set [4], 1800 nM; in [5] it was more than 18 µM; in [6], 5.7 µM. Moreover, the EC50 in data set [9], in [10] and in data set [11] was more than 18 µM in each case. This compound also registered an IC50 in data set [7] of 1300 nM. For the same compound, the CC50 at 120 h in data set [8] was found to be 18 µM. Moreover, in “in vitro”, the selectivity ratio turned out to be 10.

As usually defined, the EC50 is the concentration giving half of the maximal effect. As usually defined, the IC50 is the point on the concentration scale where inhibition reaches its midpoint. A lower IC50 goes with higher potency. In general, CC50 refers to the concentration at which the toxic effect on the cells reaches its halfway point.
